As a reminder, the IC50 is the concentration that gives 50% inhibition.

Like-named read-outs stand apart in the source and are kept apart here.

The subject of data set [1] is KB cells. Kind of data set: Test (b): in vitro inhibition of growth of human naso-pharyngeal cancer cell line KB (EGF, MTT). It is filed as cell-based. The conditions noted are these: 72 h, read-out: IC50 in Test (b), inhibition of KB cell growth. As to the method:
(b) An in vitro assay which determines the ability of a test compound to inhibit the growth of the human naso-pharyngeal cancer cell line KB.
KB cells were seeded into wells at a density of 1×10^4 -1.5×10^4 cells per well and grown for 24 hours in DMEM supplemented with 5% FCS (charcoal-stripped). Cell growth was determined after incubation for 3 days by the extent of metabolism of MTT tetrazolium dye to furnish a bluish colour. Cell growth was then determined in the presence of EGF (10 ng/ml) or in the presence of EGF (10 ng/ml) and a test compound at a range of concentrations. An IC50 value could then be calculated.

For data set [2], the system named is liver hepatocyte growth. Kind of data set: Test (c): in vivo inhibition of TGFα-stimulated liver hepatocyte growth in male rats (BrdU uptake). Details: species or system rat. The settings on record: for ED50: Rattus norvegicus, Hepatocyte, read-out: ED50 in Test (c), inhibition of liver hepatocyte proliferation.
Experimental: (c) An in vivo assay in a group of male rats which determines the ability of a test compound (usually administered orally as a ball-milled suspension in 0.5% polysorbate) to inhibit the stimulation of liver hepatocyte growth caused by the administration of the growth factor TGFα (400 μg/kg subcutaneously, usually dosed twice, 3 and 7 hours respectively after the administration of the test compound).
Cell-growth in the control and test animals is determined as follows:
On the morning of the day after the dosing of the test compound (or 0.5% polysorbate in the control group), the animals are dosed with bromodeoxyuridine (BrdU; 100 mg/kg intraperitoneally). The animals are killed four hours later and the livers are excised. […] Further tests were carried out using a range of doses of the test compounds to allow the calculation of an approximate ED50 value for the inhibition of liver hepatocyte proliferation as determined by inhibition of the uptake of BrdU.
For data set [3], the target named is T1, receptor tyrosine kinase (Homo sapiens, UniProt P00533).
T1 construct: The supernatant, containing solubilised receptor tyrosine kinase, was stored in liquid nitrogen; endogenous in cells; host or cells: A-431 cells (human vulval carcinoma), solubilised membrane fraction
Kind of data set: Test (a): in vitro receptor tyrosine kinase inhibition (enzyme from A-431 cells, 32P-ATP/peptide phosphorylation, with EGF). It is filed as biochemical. As to the method:
A-431 cells were grown to confluence using Dulbecco's modified Eagle's medium (DMEM) containing 5% fetal calf serum (FCS). The obtained cells were homogenised in a hypotonic borate/EDTA buffer at pH 10.1. The homogenate was centrifuged at 400 g for 10 minutes at 0°-4° C. The supernatant was centrifuged at 25,000 g for 30 minutes at 0°-4° C. The pelleted material was suspended in 30 mM Hepes buffer at pH 7.4 containing 5% glycerol, 4 mM benzamidine and 1% Triton X-100, stirred for 1 hour at 0°-4° C., and recentrifuged at 100,000 g for 1 hour at 0°-4° C. The supernatant, containing solubilised receptor tyrosine kinase, was stored in liquid nitrogen.
For test purposes 40 μl of the enzyme solution so obtained was added to a mixture of 400 μl of a mixture of 150 mM Hepes buffer at pH 7.4, 500 μM sodium orthovanadate, 0.1% Triton X-100, 10% glycerol, 200 μl water, 80 μl of 25 mM DTT and 80 μl of a mixture of 12.5 mM manganese chloride, 125 mM magnesium chloride and distilled water. There was thus obtained the test enzyme solution. […]
The test compound/EGF mixture solution (5 μl) was added to the test enzyme solution (10 μl) and the mixture was incubated at 0°-4° C. for 30 minutes. […] Radioactivity present in the filter paper was measured using a liquid scintillation counter (Sequence A). […]
Receptor tyrosine kinase inhibition was calculated as follows: [formula]

Data set [4] deals with human mammary carcinoma which expresses epidermal growth factor (EGF) receptor tyrosine kinase. The settings on record: athymic nude mice; Toi et al., 1990; cited from earlier work.
Data set [5] has as its system carcinoma which does not express EGF receptor tyrosine kinase. The settings on record: Toi et al., 1990; cited from earlier work.
Where [6] appears, read: male rats, usually oral, TGFα 400 μg/kg subcutaneously, BrdU uptake.

T1 sequence (P00533 25-1210): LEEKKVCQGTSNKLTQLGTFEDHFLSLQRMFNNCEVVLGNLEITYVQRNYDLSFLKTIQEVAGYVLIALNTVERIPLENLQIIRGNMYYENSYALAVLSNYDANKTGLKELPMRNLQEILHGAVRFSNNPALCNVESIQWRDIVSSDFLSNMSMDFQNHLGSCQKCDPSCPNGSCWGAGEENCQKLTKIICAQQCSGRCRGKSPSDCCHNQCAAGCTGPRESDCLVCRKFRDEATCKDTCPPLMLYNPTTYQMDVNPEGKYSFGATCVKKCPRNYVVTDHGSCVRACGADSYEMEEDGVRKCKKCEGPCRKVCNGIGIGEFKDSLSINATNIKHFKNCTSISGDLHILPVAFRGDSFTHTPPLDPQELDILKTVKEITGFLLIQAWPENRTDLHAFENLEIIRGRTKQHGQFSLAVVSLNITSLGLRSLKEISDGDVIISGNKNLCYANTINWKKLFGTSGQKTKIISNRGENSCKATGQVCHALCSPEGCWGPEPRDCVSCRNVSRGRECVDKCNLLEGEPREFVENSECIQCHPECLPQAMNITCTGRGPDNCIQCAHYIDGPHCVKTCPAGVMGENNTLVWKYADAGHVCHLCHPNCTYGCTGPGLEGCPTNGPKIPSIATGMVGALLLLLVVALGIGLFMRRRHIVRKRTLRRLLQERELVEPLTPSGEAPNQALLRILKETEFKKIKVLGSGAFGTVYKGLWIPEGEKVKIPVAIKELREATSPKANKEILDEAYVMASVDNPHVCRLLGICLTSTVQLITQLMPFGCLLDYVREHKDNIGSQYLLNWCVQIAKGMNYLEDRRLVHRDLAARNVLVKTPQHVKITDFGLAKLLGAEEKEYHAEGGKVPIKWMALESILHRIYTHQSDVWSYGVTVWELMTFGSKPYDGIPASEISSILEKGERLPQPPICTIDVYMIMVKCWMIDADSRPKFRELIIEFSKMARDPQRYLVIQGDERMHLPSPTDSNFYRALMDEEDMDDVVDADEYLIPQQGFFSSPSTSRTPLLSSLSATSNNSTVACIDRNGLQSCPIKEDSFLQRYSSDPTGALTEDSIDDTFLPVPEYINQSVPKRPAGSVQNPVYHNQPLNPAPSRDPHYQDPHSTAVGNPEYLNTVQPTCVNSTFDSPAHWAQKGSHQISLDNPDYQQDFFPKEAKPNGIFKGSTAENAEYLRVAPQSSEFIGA
T1 sequence (P01133 971-1023 partner limits assumed): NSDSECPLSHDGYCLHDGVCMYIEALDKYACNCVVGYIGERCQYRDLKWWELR

As to `COc1cc2ncnc(Nc3ccc4c(c3)CCC4)c2cc1OC` [6,7-dimethoxy-4-(5-indanylamino)quinazoline], the IC50 in data set [1] was found to be 650 nM. Moreover, the ED50 in data set [2] (po) was 1 to 5 mg/kg.

Take `COc1cc2ncnc(Nc3ccc4[nH]ccc4c3)c2cc1OC` [6,7-dimethoxy-4-(5-indolylamino)quinazoline]: the IC50 in data set [3] came to 1 nM; in data set [1] (EGF (10 ng/ml), 3 days, MTT) it was 400 nM. Moreover, the ED50 in data set [2] (setting [6]) was in the range of 1 to 5 mg/kg.

With `COc1cc2ncnc(Nc3cccc4ncccc34)c2cc1OC` [6,7-dimethoxy-4-(5-quinolylamino)quinazoline], the IC50 in data set [3] was determined as 60 nM; in data set [1] (EGF (10 ng/ml), 3 days, MTT) it was 1800 nM. Also, the ED50 in data set [2] (setting [6]) is ~2 mg/kg.

As to `O=CN/C=C/c1cc(O)ccc1O` [erbstatin], in data set [4], the “effect on growth of transplanted human mammary carcinoma expressing EGF receptor tyrosine kinase” value is on record as “specifically attenuates the growth”. The “effect on growth of another carcinoma which does not express EGF receptor tyrosine kinase” value in data set [5] was “without effect”.

For the compound “TGFα: the growth factor TGFα [reference compound]”, the “stimulation of liver hepatocyte growth” value in data set [2] (control group of rats, TGFα 400 μg/kg subcutaneously, on average) is listed as 5 fold.
